Experimental findings from patent publication US8741897B2, “Glucocorticoid mimetics, methods of making them, pharmaceutical compositions and uses thereof” (Boehringer Ingelheim Pharmaceuticals Inc., priority 2003, dated 2014) are described below.

The assay concerns glucocorticoid receptor function. Nature of the assay: one or more of the above assays (GR binding and glucocorticoid receptor cell assays: aromatase, IL-6, TAT, MMTV-Luc, IL-8, ICAM-Luc). Particulars: assay not specified per compound. It is filed as cell-based.

Consider `COc1ccc(-c2ccccc2C#N)cc1C(C)(C)CC(O)(Cc1cc2cc(N3CCCCC3)ncc2[nH]1)C(F)(F)F` (centres unmarked) [4′-Methoxy-3′-[4,4,4-trifluoro-3-hydroxy-1,1-dimethyl-3-(5-piperidin-1-yl-1H-pyrrolo[2,3-c]pyridin-2-ylmethyl)butyl]biphenyl-2-carbonitrile], for which the “activity as agonists of the glucocorticoid receptor function in one or more of the above assays” value (from here on “activity as agonists”) is “potent agonists”.
The value for `CC(CO)(CC(O)(Cc1ccnc2ccccc12)C(F)(F)F)c1ccccc1` (centres unmarked) [5,5,5-Trifluoro-2-methyl-2-phenyl-4-quinolin-4-ylmethylpentane-1,4-diol] was “agonists”; that for `CC(C)(CC(O)(Cc1cc2cnccc2[nH]1)C(C)(C)C)c1cc(Cl)cc2c1OCC2` (centres unmarked) [5-(5-Chloro-2,3-dihydrobenzofuran-7-yl)-2,2,5-trimethyl-3-(1H-pyrrolo[3,2-c]pyridin-2-ylmethyl)hexan-3-ol] was “agonists”; that for `CC(C)C(O)(Cc1cc2ccncc2[nH]1)CC(C)(C)c1cc(Cl)cc2c1OCC2` (centres unmarked) [5-(5-Chloro-2,3-dihydrobenzofuran-7-yl)-2,5-dimethyl-3-(1H-pyrrolo[2,3-c]pyridin-2-ylmethyl)hexan-3-ol] was “agonists”.
For the molecule `CC(C)C(O)(Cc1cc2cnccc2[nH]1)CC(C)(C)c1cc(Cl)cc2c1OCC2` (centres unmarked) [5-(5-Chloro-2,3-dihydrobenzofuran-7-yl)-2,5-dimethyl-3-(1H-pyrrolo[3,2-c]pyridin-2-ylmethyl)hexan-3-ol], the “activity as agonists” value is reported as “agonists”.
Turning to `Cc1c(CC(O)(CC(C)(C)c2cc(Cl)cc3c2OCC3)C(C)C)[nH]c2cnccc12` (centres unmarked) [5-(5-Chloro-2,3-dihydrobenzofuran-7-yl)-2,5-dimethyl-3-(3-methyl-1H-pyrrolo[2,3-c]pyridin-2-ylmethyl)hexan-3-ol], the “activity as agonists” value is reported as “agonists”.
On to `CC(C)C(O)(Cc1cc2cc(-c3ccccc3)ncc2[nH]1)CC(C)(C)c1cc(Cl)cc2c1OCC2` (centres unmarked) [5-(5-Chloro-2,3-dihydrobenzofuran-7-yl)-2,5-dimethyl-3-(5-phenyl-1H-pyrrolo[2,3-c]pyridin-2-ylmethyl)hexan-3-ol], for which the “activity as agonists” value was “agonists”.
`COc1ccc(F)cc1C(C)(C)CC(O)(Cc1cc2ccncc2[nH]1)C(C)(C)C` (centres unmarked) [5-(5-Fluoro-2-methoxyphenyl)-2,2,5-trimethyl-3-(1H-pyrrolo[2,3-c]pyridin-2-ylmethyl)hexan-3-ol]: the “activity as agonists” value was “agonists”.
Regarding `COc1ccc(F)cc1C(C)(C)CC(O)(Cc1cc2cnccc2[nH]1)C(C)(C)C` (centres unmarked) [5-(5-Fluoro-2-methoxyphenyl)-2,2,5-trimethyl-3-(1H-pyrrolo[3,2-c]pyridin-2-ylmethyl)hexan-3-ol], the “activity as agonists” value is listed as “agonists”.
On to `COc1ccc(F)cc1C(C)(C)CC(O)(Cc1cc2ccncc2[nH]1)C(C)C` (centres unmarked) [5-(5-Fluoro-2-methoxyphenyl)-2,5-dimethyl-3-(1H-pyrrolo[2,3-c]pyridin-2-ylmethyl)hexan-3-ol], for which the “activity as agonists” value is listed as “agonists”.
Turning to `COc1ccc(F)cc1C(C)(C)CC(O)(Cc1cc2cnccc2[nH]1)C(C)C` (centres unmarked) [5-(5-Fluoro-2-methoxyphenyl)-2,5-dimethyl-3-(1H-pyrrolo[3,2-c]pyridin-2-ylmethyl)hexan-3-ol], the “activity as agonists” value was “agonists”.
With `Cc1ccc(F)cc1C(C)(C)CC(O)(Cc1cc2ccncc2[nH]1)C(C)(C)C` (centres unmarked) [5-(5-Fluoro-2-methylphenyl)-2,2,5-trimethyl-3-(1H-pyrrolo[2,3-c]pyridin-2-ylmethyl)hexan-3-ol], the “activity as agonists” value was “agonists”.
Consider `Cc1ccc(F)cc1C(C)(C)CC(O)(Cc1cc2cnccc2[nH]1)C(C)(C)C` (centres unmarked) [5-(5-Fluoro-2-methylphenyl)-2,2,5-trimethyl-3-(1H-pyrrolo[3,2-c]pyridin-2-ylmethyl)hexan-3-ol], for which the “activity as agonists” value was “agonists”.
Regarding `Cc1ccc(F)cc1C(C)(C)CC(O)(Cc1[nH]c2cnccc2c1C)C(C)(C)C` (centres unmarked) [5-(5-Fluoro-2-methylphenyl)-2,2,5-trimethyl-3-(3-methyl-1H-pyrrolo[2,3-c]pyridin-2-ylmethyl)hexan-3-ol], the “activity as agonists” value is “agonists”.
In the case of `Cc1ccc(F)cc1C(C)(C)CC(O)(Cc1cc2cc(-c3ccccc3)ncc2[nH]1)C(C)(C)C` (centres unmarked) [5-(5-Fluoro-2-methylphenyl)-2,2,5-trimethyl-3-(5-phenyl-1H-pyrrolo[2,3-c]pyridin-2-ylmethyl)hexan-3-ol], the “activity as agonists” value was “agonists”.
The value for `Cc1ccc(F)cc1C(C)(C)CC(O)(Cc1cc2ccncc2[nH]1)C(C)C` (centres unmarked) [5-(5-Fluoro-2-methylphenyl)-2,5-dimethyl-3-(1H-pyrrolo[2,3-c]pyridin-2-ylmethyl)hexan-3-ol] was “agonists”.
Regarding `Cc1ccc(F)cc1C(C)(C)CC(O)(Cc1cc2cnccc2[nH]1)C(C)C` (centres unmarked) [5-(5-Fluoro-2-methylphenyl)-2,5-dimethyl-3-(1H-pyrrolo[3,2-c]pyridin-2-ylmethyl)hexan-3-ol], the “activity as agonists” value was “agonists”.
Consider `Cc1ccc(F)cc1C(C)(C)CC(O)(Cc1cc2cc(-c3ccccc3)ncc2[nH]1)C(C)C` (centres unmarked) [5-(5-Fluoro-2-methylphenyl)-2,5-dimethyl-3-(5-phenyl-1H-pyrrolo[2,3-c]pyridin-2-ylmethyl)hexan-3-ol], for which the “activity as agonists” value was “agonists”.
The value for `Cc1c(CC(O)(CC(C)(C)c2ccc(F)cc2O)C(F)(F)F)[nH]c2cnccc12` (centres unmarked) [5-Fluoro-2-[4,4,4-trifluoro-3-hydroxy-1,1-dimethyl-3-(3-methyl-1H-pyrrolo[2,3-c]pyridin-2-ylmethyl)butyl]phenol] was “potent agonists”; that for `Cc1cncc2[nH]c(CC(O)(CC(C)(C)c3ccc(F)cc3O)C(F)(F)F)cc12` (centres unmarked) [5-Fluoro-2-[4,4,4-trifluoro-3-hydroxy-1,1-dimethyl-3-(4-methyl-1H-pyrrolo[2,3-c]pyridin-2-ylmethyl)butyl]phenol] was “potent agonists”; that for `Cc1nccc2[nH]c(CC(O)(CC(C)(C)c3ccc(F)cc3O)C(F)(F)F)cc12` (centres unmarked) [5-Fluoro-2-[4,4,4-trifluoro-3-hydroxy-1,1-dimethyl-3-(4-methyl-1H-pyrrolo[3,2-c]pyridin-2-ylmethyl)butyl]phenol] was “potent agonists”.
For the molecule `CC(C)(CC(O)(Cc1cc2ncncc2[nH]1)C(F)(F)F)c1ccc(F)cc1O` (centres unmarked) [5-Fluoro-2-[4,4,4-trifluoro-3-hydroxy-1,1-dimethyl-3-(5H-pyrrolo[3,2-d]pyrimidin-6-ylmethyl)butyl]phenol], the “activity as agonists” value is “potent agonists”.
Consider `Cc1ccc(F)cc1C(C)(C)CC(O)(Cc1cc2cc(OS(=O)(=O)C(F)(F)F)ncc2[nH]1)C(F)(F)F` (centres unmarked) [Trifluoromethanesulfonic acid 2-[4-(5-fluoro-2-methylphenyl)-2-hydroxy-4-methyl-2-trifluoromethylpentyl]-1H-pyrrolo[2,3-c]pyridin-5-yl ester], for which the “activity as agonists” value was “potent agonists”.
